Eleven compounds from ChEMBL document CHEMBL5465560, “Selectivity Literature for EUbOPEN Chemogenomic Library” (2024) can be followed below.

Test [1] concerns the target Vascular endothelial growth factor receptor 3 (Homo sapiens, UniProt P35916). The test can be described thus: Selectivity interaction (Kinase panel (Z-LYTE Assay)) EUB0001632a FLT4. The following applies: at 10 µM.
Test [2] has as its target Cyclin-dependent kinase 5/CDK5 activator 1 (Homo sapiens) (UniProt Q00535+Q15078). The test can be described thus: Selectivity interaction (SelectScreen profiling (Invitrogen)) EUB0000607a CDK5. Format: protein-complex assay. The following applies: at 2 µM.
Test [3] has as its target T1, Receptor-interacting serine/threonine-protein kinase 1 (Homo sapiens) (UniProt Q13546).
T1 sequence (whole entry): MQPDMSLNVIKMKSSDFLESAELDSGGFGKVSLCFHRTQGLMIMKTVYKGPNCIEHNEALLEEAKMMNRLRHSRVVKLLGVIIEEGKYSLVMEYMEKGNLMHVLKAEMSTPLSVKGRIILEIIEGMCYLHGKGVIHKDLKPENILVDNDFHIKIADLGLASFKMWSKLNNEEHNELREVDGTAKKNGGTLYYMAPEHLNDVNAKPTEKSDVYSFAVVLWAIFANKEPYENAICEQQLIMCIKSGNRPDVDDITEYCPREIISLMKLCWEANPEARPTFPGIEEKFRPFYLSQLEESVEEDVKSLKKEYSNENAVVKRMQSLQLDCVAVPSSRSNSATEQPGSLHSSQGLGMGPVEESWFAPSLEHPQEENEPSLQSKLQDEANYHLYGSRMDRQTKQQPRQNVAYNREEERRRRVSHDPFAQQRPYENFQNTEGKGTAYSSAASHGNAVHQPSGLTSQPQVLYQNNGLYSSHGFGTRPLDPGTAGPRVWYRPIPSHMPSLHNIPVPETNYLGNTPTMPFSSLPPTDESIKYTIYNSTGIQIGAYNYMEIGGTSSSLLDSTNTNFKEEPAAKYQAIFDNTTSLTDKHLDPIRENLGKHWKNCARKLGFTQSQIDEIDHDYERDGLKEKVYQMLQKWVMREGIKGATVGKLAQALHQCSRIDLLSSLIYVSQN
As to conditions: at 10 µM.

The target in test [4] is Mitogen-activated protein kinase kinase kinase kinase 5 (Homo sapiens) (UniProt Q9Y4K4). The experiment in a line: Selectivity interaction (KinomeScan (DiscoverX)) EUB0000666a MAP4K5. As to conditions: at 10 µM.
Chain of Mitogen-activated protein kinase kinase kinase kinase 5 (Homo sapiens) (Q9Y4K4 whole entry, looked up): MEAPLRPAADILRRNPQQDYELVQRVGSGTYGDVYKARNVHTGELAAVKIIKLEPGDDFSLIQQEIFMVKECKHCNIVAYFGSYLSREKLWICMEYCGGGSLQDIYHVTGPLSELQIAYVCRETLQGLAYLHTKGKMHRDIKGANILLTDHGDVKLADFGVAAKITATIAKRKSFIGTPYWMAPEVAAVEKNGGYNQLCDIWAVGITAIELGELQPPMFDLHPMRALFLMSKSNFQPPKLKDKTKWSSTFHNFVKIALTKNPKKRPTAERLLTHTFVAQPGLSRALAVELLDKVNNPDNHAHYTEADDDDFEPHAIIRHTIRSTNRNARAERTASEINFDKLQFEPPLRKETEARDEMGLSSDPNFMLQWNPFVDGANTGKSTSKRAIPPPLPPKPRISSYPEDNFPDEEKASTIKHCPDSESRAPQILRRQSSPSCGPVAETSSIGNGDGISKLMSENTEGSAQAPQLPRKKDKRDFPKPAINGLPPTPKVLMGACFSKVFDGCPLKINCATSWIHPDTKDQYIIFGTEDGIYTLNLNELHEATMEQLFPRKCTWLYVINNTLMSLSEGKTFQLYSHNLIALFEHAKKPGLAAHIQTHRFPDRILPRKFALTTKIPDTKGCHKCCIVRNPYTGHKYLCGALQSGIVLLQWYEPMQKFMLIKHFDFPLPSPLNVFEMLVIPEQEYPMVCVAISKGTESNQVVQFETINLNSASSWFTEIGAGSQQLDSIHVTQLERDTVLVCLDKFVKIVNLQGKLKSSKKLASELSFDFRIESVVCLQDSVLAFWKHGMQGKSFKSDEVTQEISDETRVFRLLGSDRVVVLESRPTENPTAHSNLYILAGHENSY
The target in test [5] is T2, Serine/threonine-protein kinase ICK (Homo sapiens) (UniProt Q9UPZ9).
T2 sequence (whole entry): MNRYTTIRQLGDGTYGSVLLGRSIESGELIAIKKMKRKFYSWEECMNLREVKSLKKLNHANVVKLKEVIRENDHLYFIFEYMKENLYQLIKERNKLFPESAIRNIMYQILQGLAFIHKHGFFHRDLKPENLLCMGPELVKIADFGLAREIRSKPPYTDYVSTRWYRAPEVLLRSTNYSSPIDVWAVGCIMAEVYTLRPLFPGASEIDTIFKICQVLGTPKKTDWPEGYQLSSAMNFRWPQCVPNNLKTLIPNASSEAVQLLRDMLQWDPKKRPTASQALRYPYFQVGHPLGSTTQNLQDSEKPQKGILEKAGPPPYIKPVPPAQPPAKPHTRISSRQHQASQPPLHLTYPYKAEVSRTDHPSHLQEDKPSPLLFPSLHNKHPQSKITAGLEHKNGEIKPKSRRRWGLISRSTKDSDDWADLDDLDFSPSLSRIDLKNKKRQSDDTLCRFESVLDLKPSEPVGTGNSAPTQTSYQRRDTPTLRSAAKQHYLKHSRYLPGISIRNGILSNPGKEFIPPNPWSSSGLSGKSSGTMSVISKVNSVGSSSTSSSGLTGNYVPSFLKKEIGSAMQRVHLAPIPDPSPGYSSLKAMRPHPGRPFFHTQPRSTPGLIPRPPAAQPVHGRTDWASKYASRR
The test can be described thus: Selectivity interaction (KinomeScan (DiscoverX)) EUB0000229b ICK. As to conditions: at 10 µM.

For test [6], the target named is T3, cAMP-dependent protein kinase catalytic subunit PRKX (Homo sapiens) (UniProt P51817).
T3 sequence (whole entry): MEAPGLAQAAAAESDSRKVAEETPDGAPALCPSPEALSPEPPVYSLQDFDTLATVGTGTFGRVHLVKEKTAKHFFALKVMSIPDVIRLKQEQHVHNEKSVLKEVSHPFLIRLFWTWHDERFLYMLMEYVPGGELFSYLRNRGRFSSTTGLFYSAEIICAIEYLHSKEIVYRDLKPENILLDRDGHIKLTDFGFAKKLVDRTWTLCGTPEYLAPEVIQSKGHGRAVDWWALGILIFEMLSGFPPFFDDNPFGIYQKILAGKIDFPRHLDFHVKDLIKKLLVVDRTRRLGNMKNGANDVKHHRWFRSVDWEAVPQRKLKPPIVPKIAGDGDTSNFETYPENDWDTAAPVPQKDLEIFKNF
The test can be described thus: Selectivity interaction (KinomeScan (DiscoverX)) EUB0000655a PRKX. The following applies: at 10 µM.

Test [7] concerns the target Growth hormone secretagogue receptor type 1 (Homo sapiens, UniProt Q92847). The experiment in a line: Selectivity interaction (Ghrelin receptor binding assay, human recombinant ) EUB0000877a […].
Test [8] addresses Tyrosine-protein kinase BTK (Homo sapiens, UniProt Q06187). The following applies: at 10 µM.
Test [9] relates to Tyrosine-protein kinase ABL1 (Homo sapiens), P00519 [F317I]. The experiment in a line: Selectivity interaction (KinomeScan (DiscoverX)) EUB0001049a ABL1. As to conditions: at 1 µM.
Chain of Tyrosine-protein kinase ABL1 (Homo sapiens), P00519 [F317I] (P00519 whole entry F317I): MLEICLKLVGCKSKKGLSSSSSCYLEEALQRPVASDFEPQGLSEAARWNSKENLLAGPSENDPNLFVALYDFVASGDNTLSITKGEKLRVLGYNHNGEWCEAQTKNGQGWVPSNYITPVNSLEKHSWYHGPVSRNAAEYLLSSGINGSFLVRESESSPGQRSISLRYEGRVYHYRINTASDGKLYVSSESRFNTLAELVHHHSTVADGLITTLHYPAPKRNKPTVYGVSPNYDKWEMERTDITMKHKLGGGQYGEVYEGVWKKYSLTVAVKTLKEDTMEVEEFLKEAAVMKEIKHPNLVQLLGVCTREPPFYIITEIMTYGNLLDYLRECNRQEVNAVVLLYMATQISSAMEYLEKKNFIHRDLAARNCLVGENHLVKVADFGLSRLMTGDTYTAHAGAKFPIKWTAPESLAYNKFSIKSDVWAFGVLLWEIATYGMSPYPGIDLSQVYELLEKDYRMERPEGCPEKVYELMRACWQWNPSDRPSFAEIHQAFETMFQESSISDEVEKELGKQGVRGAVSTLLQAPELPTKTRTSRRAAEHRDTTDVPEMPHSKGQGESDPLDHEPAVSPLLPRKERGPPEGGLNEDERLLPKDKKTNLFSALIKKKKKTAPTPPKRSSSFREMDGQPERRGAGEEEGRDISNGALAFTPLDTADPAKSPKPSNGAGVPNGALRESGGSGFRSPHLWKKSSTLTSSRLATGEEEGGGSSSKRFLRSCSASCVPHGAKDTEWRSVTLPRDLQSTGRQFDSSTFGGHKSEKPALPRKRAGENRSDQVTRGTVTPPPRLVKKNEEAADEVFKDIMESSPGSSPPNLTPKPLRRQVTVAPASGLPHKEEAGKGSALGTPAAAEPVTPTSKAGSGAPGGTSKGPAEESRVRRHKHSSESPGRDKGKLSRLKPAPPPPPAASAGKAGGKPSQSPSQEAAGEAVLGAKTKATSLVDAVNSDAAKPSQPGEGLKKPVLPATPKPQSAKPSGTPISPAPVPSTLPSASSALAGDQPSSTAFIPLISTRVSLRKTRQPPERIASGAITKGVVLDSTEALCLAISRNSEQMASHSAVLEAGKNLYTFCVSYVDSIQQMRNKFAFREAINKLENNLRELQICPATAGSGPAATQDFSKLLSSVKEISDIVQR
Test [10] concerns Tyrosine-protein kinase ABL1 (Homo sapiens), P00519 [F317L]. The test can be described thus: Selectivity interaction (KinomeScan (DiscoverX)) EUB0000045b ABL1. As to conditions: at 10 µM.
Chain of Tyrosine-protein kinase ABL1 (Homo sapiens), P00519 [F317L] (P00519 whole entry F317L): as the sequence (P00519 whole entry F317I) above, with I317L counted along it
Test [11] has as its target Rho-associated protein kinase 1 (Homo sapiens) (UniProt Q13464). The experiment in a line: Selectivity interaction (Upstate Kinase Profiler service (Millipore)) EUB0000056c ROCK1. The following applies: at 1 µM.

Chain of Tyrosine-protein kinase BTK (Q06187 whole entry): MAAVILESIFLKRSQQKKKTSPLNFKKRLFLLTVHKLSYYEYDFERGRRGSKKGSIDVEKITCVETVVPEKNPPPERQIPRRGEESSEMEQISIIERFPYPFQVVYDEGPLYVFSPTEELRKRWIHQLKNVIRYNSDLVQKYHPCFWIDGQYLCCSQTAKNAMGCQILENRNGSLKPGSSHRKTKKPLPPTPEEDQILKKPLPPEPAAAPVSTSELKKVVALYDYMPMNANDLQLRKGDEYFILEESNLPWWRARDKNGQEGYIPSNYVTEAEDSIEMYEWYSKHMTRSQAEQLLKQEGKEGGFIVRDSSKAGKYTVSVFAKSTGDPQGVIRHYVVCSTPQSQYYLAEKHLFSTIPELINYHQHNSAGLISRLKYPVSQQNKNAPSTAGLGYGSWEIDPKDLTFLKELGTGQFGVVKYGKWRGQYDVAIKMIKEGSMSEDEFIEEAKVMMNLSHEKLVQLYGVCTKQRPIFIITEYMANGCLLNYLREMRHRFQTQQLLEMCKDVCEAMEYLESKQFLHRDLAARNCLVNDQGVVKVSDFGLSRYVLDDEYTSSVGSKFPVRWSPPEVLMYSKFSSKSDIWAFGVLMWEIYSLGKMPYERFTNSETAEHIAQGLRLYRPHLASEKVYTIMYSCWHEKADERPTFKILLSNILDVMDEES
Chain of Growth hormone secretagogue receptor type 1 (Q92847 whole entry): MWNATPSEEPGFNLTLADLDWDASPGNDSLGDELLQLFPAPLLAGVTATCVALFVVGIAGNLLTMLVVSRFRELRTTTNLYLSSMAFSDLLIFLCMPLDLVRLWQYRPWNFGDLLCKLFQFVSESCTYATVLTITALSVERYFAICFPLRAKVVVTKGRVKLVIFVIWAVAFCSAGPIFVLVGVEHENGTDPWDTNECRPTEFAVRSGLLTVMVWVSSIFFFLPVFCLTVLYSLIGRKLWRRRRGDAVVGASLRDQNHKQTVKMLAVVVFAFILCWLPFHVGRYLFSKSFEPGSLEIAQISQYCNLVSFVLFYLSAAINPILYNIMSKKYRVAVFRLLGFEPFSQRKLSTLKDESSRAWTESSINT
Chain of Cyclin-dependent kinase 5/CDK5 activator 1 (Homo sapiens) (Q00535 whole entry): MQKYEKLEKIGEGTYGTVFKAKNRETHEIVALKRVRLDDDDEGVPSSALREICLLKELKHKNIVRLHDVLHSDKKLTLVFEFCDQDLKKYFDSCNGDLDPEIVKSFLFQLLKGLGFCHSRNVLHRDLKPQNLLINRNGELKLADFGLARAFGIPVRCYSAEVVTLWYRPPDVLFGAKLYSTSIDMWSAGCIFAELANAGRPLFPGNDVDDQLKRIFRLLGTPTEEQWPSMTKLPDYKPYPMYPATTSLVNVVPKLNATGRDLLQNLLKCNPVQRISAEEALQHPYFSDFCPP
Chain of Cyclin-dependent kinase 5/CDK5 activator 1 (Homo sapiens) (Q15078 99-307 partner limits assumed): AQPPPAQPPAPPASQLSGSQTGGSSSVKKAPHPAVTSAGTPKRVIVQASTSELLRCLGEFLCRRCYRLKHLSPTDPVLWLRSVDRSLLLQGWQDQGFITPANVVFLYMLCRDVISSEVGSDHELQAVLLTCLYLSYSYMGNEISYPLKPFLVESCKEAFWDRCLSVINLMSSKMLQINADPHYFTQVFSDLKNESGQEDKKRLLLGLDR
Chain of Vascular endothelial growth factor receptor 3 (P35916 whole entry): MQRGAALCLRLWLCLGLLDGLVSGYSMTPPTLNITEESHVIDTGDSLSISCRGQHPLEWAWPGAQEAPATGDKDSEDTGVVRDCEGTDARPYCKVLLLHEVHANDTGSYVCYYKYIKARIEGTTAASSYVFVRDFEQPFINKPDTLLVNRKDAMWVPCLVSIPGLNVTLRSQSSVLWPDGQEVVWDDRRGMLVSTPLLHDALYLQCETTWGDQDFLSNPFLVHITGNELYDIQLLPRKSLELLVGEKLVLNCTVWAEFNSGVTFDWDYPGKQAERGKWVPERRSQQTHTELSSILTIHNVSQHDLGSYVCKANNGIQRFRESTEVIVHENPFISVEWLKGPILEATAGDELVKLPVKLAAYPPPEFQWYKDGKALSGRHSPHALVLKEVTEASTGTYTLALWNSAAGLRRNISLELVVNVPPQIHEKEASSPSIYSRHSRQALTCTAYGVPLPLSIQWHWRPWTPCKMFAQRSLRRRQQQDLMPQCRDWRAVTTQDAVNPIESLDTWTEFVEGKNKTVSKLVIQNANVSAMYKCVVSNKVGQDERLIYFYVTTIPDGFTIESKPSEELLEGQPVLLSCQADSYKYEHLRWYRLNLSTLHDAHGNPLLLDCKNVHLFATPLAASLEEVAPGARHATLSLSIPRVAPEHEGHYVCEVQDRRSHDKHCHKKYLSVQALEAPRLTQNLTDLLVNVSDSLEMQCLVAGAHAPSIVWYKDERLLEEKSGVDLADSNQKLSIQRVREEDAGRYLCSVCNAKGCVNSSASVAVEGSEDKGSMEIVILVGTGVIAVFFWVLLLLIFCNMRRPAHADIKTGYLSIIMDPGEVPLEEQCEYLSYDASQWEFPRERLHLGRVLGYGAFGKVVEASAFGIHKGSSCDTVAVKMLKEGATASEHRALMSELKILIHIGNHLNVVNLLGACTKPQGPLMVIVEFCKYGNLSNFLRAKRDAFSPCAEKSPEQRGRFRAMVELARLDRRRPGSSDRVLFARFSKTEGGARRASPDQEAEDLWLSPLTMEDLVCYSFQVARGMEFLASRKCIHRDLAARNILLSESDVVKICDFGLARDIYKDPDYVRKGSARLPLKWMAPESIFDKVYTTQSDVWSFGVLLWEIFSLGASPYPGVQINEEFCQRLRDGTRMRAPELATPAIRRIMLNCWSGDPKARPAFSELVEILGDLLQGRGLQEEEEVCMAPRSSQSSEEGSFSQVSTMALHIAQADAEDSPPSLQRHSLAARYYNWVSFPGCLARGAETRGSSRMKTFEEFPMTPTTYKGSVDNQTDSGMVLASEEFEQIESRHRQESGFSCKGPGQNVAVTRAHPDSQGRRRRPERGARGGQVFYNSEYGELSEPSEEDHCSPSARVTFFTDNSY

The compound `Cn1cc(-n2cnc3c(NCc4nc5cc(Cl)c(Cl)cc5[nH]4)nc(N4CCOCC4)nc32)cn1` yielded a % of control in test [1] of 11.7%.
Take `CNC(=O)Nc1ccc(-c2nc(N3CC4CCC(C3)O4)c3cnn(C4CCC5(CC4)OCCO5)c3n2)cc1`: in test [2], the % of inhibition was found to be 1%.
In [3], `Cc1cc([C@@H](C)Nc2ccccc2C(=O)O)c2nc(N3CCOCC3)cc(=O)n2c1` [AZD-6482] showed a % of control of 100%.
For `O=C(NOC[C@H](O)CO)c1ccc(F)c(F)c1Nc1ccc(I)cc1F`, the % of control in test [4] is 69%.
With `COc1cc(N(C)c2ccnc3ccc(C(F)(F)F)cc23)cc(OC)c1OC`, the % binding in test [5] was 73%.
In the case of `CN(C)CCOc1ccc(-c2nc(-c3ccncc3)c(-c3ccc4c(c3)CC/C4=N\O)[nH]2)cc1`, the % of control in test [6] came out at 94%.
The term IC50 denotes the concentration needed to halve the response being measured. Take `CCC(=O)N1CC[C@H](Nc2ncnc3c2CN(c2cnc(OC)c(C(F)(F)F)c2)CC3)C1` [LENIOLISIB]: in [7], the IC50 was over 30 µM.
Compound `CCN(CC)CCCCNc1ncc2cc(-c3cc(OC)cc(OC)c3)c(NC(=O)NC(C)(C)C)nc2n1` came in with a % of control in test [8] of 100%.
In test [9], `COc1cc(Nc2nc(C)cc(-c3cnn4nc(OC)ccc34)n2)cc(C(F)(F)F)c1` showed a % of control of 67%.
As for `C=CC(=O)Nc1cc(-n2c(=O)ccc3cnc4ccc(-c5ccc(NS(C)(=O)=O)cc5)cc4c32)ccc1C`, the % of control in [10] was determined as 75%.
Turning to `Cc1ccc(-c2ccc3c(ccc4sc5c(c43)NC[C@@H](C)NC5=O)n2)cn1`, the % of inhibition in [11] is -13%.
